Assay results from patent US20250289793A1, “MACROCYCLIC INHIBITORS OF ATP CITRATE LYASE” (Esperion Therapeutics, Inc., priority 2022, published 2025).
Read-outs that look alike come from different tables or passages of the source.

Legend:
[1] = target: Recombinant human ACLY full length protein (Homo sapiens (Human), UniProt P53396); test: hACLY ADP-Glo activity assay; format: biochemical; details: 0.5 nM ACLY; 15 μM sodium citrate, 1 μM coenzyme A, 80 μM ATP; ADP formed, luminescence; read-out: ADP-Glo IC50 GMean
Recombinant human ACLY full length protein, sequence (P53396 whole entry): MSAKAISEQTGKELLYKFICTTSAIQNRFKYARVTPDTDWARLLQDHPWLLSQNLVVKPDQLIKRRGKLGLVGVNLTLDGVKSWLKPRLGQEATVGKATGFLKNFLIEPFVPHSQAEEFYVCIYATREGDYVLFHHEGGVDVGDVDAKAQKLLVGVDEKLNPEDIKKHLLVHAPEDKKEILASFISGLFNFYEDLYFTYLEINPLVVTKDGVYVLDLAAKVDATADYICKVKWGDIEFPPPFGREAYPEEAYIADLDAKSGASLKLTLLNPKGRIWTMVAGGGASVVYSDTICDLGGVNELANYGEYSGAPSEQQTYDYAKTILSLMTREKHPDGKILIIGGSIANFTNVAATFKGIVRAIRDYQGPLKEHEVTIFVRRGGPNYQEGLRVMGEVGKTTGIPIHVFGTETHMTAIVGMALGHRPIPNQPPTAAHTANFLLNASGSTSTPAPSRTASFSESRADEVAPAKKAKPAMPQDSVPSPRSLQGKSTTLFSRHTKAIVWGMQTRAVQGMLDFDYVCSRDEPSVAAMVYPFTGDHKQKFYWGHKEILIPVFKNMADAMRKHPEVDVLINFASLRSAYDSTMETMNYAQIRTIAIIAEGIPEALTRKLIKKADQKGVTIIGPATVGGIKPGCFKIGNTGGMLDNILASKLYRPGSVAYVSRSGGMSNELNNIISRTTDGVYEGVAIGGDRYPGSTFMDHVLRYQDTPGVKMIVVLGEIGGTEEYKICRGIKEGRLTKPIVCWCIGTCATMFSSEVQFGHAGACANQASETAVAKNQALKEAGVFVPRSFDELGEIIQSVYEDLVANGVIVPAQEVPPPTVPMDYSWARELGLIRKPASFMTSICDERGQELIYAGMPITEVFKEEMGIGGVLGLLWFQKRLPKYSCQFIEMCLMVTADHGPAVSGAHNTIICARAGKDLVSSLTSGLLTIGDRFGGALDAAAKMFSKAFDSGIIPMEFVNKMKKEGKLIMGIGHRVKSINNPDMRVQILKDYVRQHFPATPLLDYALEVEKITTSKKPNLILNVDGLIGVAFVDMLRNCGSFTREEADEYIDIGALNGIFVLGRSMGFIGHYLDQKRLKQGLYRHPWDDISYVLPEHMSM
Procedure: Compounds of the disclosure were evaluated for their efficacy in inhibiting hACLY using an ADP-Glo™ assays that measure ADP formed from the enzymatic activity of hACLY.
Test compounds were 3-fold serially diluted in DMSO over 11-point concentration range and dispensed onto a 384-well plate. Recombinant human ACLY full length protein was purified. Concentrations of ACLY protein, sodium citrate, coenzyme A, and ATP in the reaction were optimized for standardized homogenous enzyme assay using ADP-Glo™ Kinase (Promega Inc.). The assay measured ADP formed from the enzymatic reaction.
The reaction buffer consisted of the assay buffer (50 mM HEPES pH 8.0, 10 mM MgCl2, 4 mM 1,4-Dithiothreitol, 0.01% Brij® 35).
ACLY protein (0.5 nM) was added to the prepared reaction buffer, and the mixture was dispensed into the assay plate and incubated for 30 minutes at room temperature. Next, 15 μM sodium citrate, 1 μM coenzyme A, and 80 μM ATP were added into the assay plate and incubated for 60 minutes at room temperature. The final reaction volume for each well was 5 μL.
5 μL of ADP-Glo™ reagent was added, and the mixture was incubated for 40 minutes at room temperature. 10 μl ADP-Glo™ detection reagent was added, and the mixture was incubated for 30 minutes at room temperature. Luminescence was determined using EnVision microplate reader with ultra-luminescence module (Perkin Elmer Inc). Concentration-response curve-fitting and IC50 determination was performed using Xlfit Software (version 5.5.0) with a four-parameter logistic regression fit model.

ACLY [2] = target: T1, ACLY (Homo sapiens (Human), UniProt P53396); test: Human ACLY (hACLY) RF/MS activity assay; format: biochemical; details: 1 nM hACLY; 30 min pre-incubation; 15 μM Coenzyme A, 50 μM ATP, 50 μM citrate; CoA to Acetyl-CoA by RF/MS; read-out: RFMS IC50 GMean
T1 sequence (P53396 whole entry): as above
Procedure, shortened: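 RapidFire MS read CoA-to-acetyl-CoA conversion as a substrate/product ratio after 30 min at RT (20° C) with final 15 μM CoA, 50 μM ATP, 50 μM citrate. Before substrate addition, 1 nM enzyme sat 30 min with compound (top 10 μM, two-fold dilutions; 1% DMSO) in pH 8.0 Hepes/MgCl2/NaCl/DTT buffer.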

ACLY [3] = target: T1, ACLY; test: InCell Pulse assay (permeate HEK293 cells, bind to and stabilize ACLY); format: cell-based; details: HEK293 cells transfected with pICP-ACLY(FL)-ePL; 1 hour at 37° C., 55° C. heat pulse 10 minutes; read-out: InCell Pulse IC50 GMean
Procedure, shortened: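 HEK293 cells transiently expressing full-length ACLY-ePL were exposed in OptiMEM to 11-point, 3-fold compound dilutions for 1 h at 37 °C, heat-pulsed 10 min at 55 °C, then lysed for enzyme-fragment complementation luminescence. Four-parameter fit, normalised to 0.5% DMSO and 1 μM NDI-094311.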

HepG2 cells = test: Fatty acid synthesis (FAS) assay in HepG2 cells; format: cell-based; details: Homo sapiens, 1.5 h, 14C-citrate 50 μM, 90 min, read-out: FAS IC50 GMean
Procedure: HepG2 cells were seeded into white clear-bottom 96-well plates (50,000/well) coated with collagen and incubated at 37° C. for 16-24 hours. Thereafter the plates were washed once with 100 μL PBS (+CaCl2+MgCl2) and 50 μL assay medium ([…] containing 11 mM glucose, 10 mM HEPES and 1 nM Insulin) per well was added. Test substances in assay medium were added (10 μL, 0.5% DMSO) and incubated for 20 min at 37° C. After that 10 μL assay medium containing ^14C-citrate (final concentration 50 μM) and PrestoBlue reagent (lx final concentration; ThermoFisher) were added and incubated for 90 min (37° C., 5% CO2). Cell viability was measured (Multiskan FC, microplate reader, absorbance 570 nm). Medium was removed by inverting the plate and cells were washed once with 100 μL ice-cold PBS. Cells were lysed with 50 μL lysis buffer (0.1 N NaOH, 0.1% Triton X-100) and plate was sealed with Tape Pads and vortexed. For the saponification reaction plates were incubated for 16-24 hours at 80° C. Seals were removed and 200 μL 0.1 N HCl was added for neutralisation of the pH. 150 μL from each well was transferred into the corresponding wells of a 96-well Flash plate (Perkin Elmer) and sealed with TopSeal A (Perkin Elmer). Plates were incubated for 4 h at 70° C., and for 1 h at room temperature in the dark. Signal of ^14C radioactivity was measured (TopCount). As a positive control 5 mM unlabelled citrate or C75 (Sigma, C5490) was applied.

| IC50 [1] [nM] | IC50 (ACLY [2]) [nM] | IC50 (ACLY [3]) [nM] | IC50 (HepG2 cells) [nM] | SMILES | also measured |
| --- | --- | --- | --- | --- | --- |
|  |  |  |  | COc1c(Cl)cc2cc1S(=O)(=O)Nc1cc(c(F)cc1F)-c1cccc3c1OC(COC2=O)C3 (centres unmarked) | ring closure, isolated yield (from COc1c(Cl)cc(C(=O)O)cc1S(=O)(=O)Nc1cc(-c2cccc3c2OC(CO)C3)c(F)cc1F, ester bond, 15-membered ring, DCC/DMAP, DCM, 29.5 mM, 25.0 °C, 2.0 h): 70% |
|  |  |  |  | COc1c(Cl)cc2cc1S(=O)(=O)Nc1cc(c(F)cc1F)-c1ccccc1C(C)CCOC2=O (centres unmarked) | ring closure, isolated yield (from COc1c(Cl)cc(C(=O)O)cc1S(=O)(=O)Nc1cc(-c2ccccc2C(C)CCO)c(F)cc1F, ester bond, 15-membered ring, DCC/DMAP, DCM, 19.8 mM, 25.0 °C, 2.0 h): 72% |
|  |  |  |  | COc1c(Cl)cc2cc1S(=O)(=O)Nc1cc(c(F)cc1F)-c1ccccc1COC(=O)C2 | ring closure, isolated yield (from COc1c(Cl)cc(CC(=O)O)cc1S(=O)(=O)Nc1cc(-c2ccccc2CO)c(F)cc1F, ester bond, 14-membered ring, DCC/DMAP, DCM, 12.7 mM, 3.0 h): 19% |
|  |  |  |  | COc1c(Cl)cc2cc1S(=O)(=O)Nc1cc(c(F)cc1F)-c1ccccc1COC2=O | ring closure, isolated yield (from COc1c(Cl)cc(C(=O)O)cc1S(=O)(=O)Nc1cc(-c2ccccc2CO)c(F)cc1F, ester bond, 13-membered ring, DCC/DMAP, DCM, 21.8 mM, 26.5 h): 43% |
|  |  |  |  | COc1c(Cl)cc2cc1S(=O)(=O)Nc1cc(c(F)cc1F)-c1ccccc1N1CC(COC2=O)C1 | ring closure, isolated yield (from 3-chloro-5-[[2,4-difluoro-5-[2-[3-(hydroxymethyl)229azetidine-1-yl]phenyl]phenyl]sulfamoyl]-4-methoxybenzoic acid, ester bond, 16-membered ring, DCC/DMAP, DCM, 25.0 mM): 60% |
|  |  |  |  | COc1c(Cl)cc2cc1S(=O)(=O)Nc1cc(c(F)cc1F)Oc1cccc(c1)COC2=O | ring closure, isolated yield (from COc1c(Cl)cc(C(=O)O)cc1S(=O)(=O)Nc1cc(Oc2cccc(CO)c2)c(F)cc1F, ester bond, 15-membered ring, DCC/DMAP, DCM, 19.8 mM, 3.0 h): 72% |
|  |  |  |  | COc1c(Cl)cc2cc1S(=O)(=O)Nc1cc(ccc1C(F)(F)F)-c1ccccc1OCCOC2=O | ring closure, isolated yield (from COc1c(Cl)cc(C(=O)O)cc1S(=O)(=O)Nc1cc(-c2ccccc2OCCO)ccc1C(F)(F)F, ester bond, 15-membered ring, DCC/DMAP, DCM, 16.8 mM, 25.0 °C, 1.0 h): 42% |
|  |  |  |  | COc1c(Cl)cc2cc1S(=O)(=O)Nc1cc(ccc1F)-c1ccccc1CCCOC2 | ring closure, isolated yield (from COc1c(Cl)cc(CBr)cc1S(=O)(=O)Nc1cc(-c2ccccc2CCCO)ccc1F, ether bond, 15-membered ring, NaH, THF, 13.0 mM, 50.0 °C, 2.0 h): 46% |
|  |  |  |  | COc1c(Cl)cc2cc1S(=O)(=O)Nc1cc(ccc1F)-c1ccccc1CCOC2 | ring closure, isolated yield (from COc1c(Cl)cc(CBr)cc1S(=O)(=O)Nc1cc(-c2ccccc2CCO)ccc1F, ether bond, 14-membered ring, NaH, THF, 12.7 mM, 50.0 °C, 2.5 h): 78% |
|  |  |  |  | COc1c(Cl)cc2cc1S(=O)(=O)Nc1cc(ccc1F)N1CCC[C@@H]1CCOC2=O | ring closure, isolated yield (from 3-chloro-5-[[2-fluoro-5-[(2R)-2-(2-hydroxyethyl)221pyrrolidine-1-yl]phenyl]sulfamoyl]-4-methoxybenzoic acid, ester bond, 14-membered ring, DCC/DMAP, DCM, 26.0 mM): 77% |
|  |  |  |  | COc1ccc2cc1C(=O)N1CCc3cc(F)c(cc31)-c1ccccc1OCCNC2=O | ring closure, isolated yield (from 3-[6-[2-(2-aminoethoxy)phenyl]-5-fluoro-indoline-1-carbonyl]-4-methoxybenzoic acid·HCl, amide bond, 15-membered ring, T3P/DIPEA, DMF, 11.6 mM): 24% |
|  |  |  |  | O=C1OCCOc2ccccc2-c2cc(c(F)cc2F)NS(=O)(=O)c2cc1cc(Cl)c2C(F)F | ring closure, isolated yield (from O=C(O)c1cc(Cl)c(C(F)F)c(S(=O)(=O)Nc2cc(-c3ccccc3OCCO)c(F)cc2F)c1, ester bond, 15-membered ring, DCC/DMAP, DCM, 33.0 mM, 25.0 °C, 1.5 h): 53% |
| ≥ 1000 |  |  |  | COc1c(Cl)cc2cc1S(=O)(=O)Nc1cc(c(F)cc1F)-c1ccccc1OCCNC2=O [Compound 1, 15-chloro-21,23-difluoro-16-methoxy-8-oxa-18lambda6-thia-11,19-diazatetracyclo[18.3.1.1^13,17.0^2,7]pentacosa-1(24),2,4,6,13,15,17(25),20,22-nonaene-12,18,18-trione] | ring closure, isolated yield (amide bond, 15-membered ring, T3P/DIPEA, EtOAc/DMF, 4.9 mM): 72% |
| 1 to 10 | 20 to 100 | 1000 to 50000 | ≥ 50000 | O=C1NCCOc2ccccc2-c2cc(c(F)cc2F)NS(=O)(=O)c2cc1cc(Cl)c2O [Compound 2, 15-chloro-21,23-difluoro-16-hydroxy-8-oxa-18lambda6-thia-11,19-diazatetracyclo[18.3.1.1^13,17.0^2,7]pentacosa-1(24),2,4,6,13,15,17(25),20,22-nonaene-12,18,18-trione] |  |
| 1 to 10 | 20 to 100 | 1000 to 50000 | 10000 to 50000 | CN1CCOc2ccccc2-c2cc(c(F)cc2F)NS(=O)(=O)c2cc(cc(Cl)c2O)C1=O [Compound 4, 15-chloro-21,23-difluoro-16-hydroxy-11-methyl-8-oxa-18lambda6-thia-11,19-diazatetracyclo[18.3.1.1^13,17.0^2,7]pentacosa-1(24),2,4,6,13,15,17(25),20,22-nonaene-12,18,18-trione] |  |
| 10 to 1000 | 100 to 10000 | ≥ 50000 | 10000 to 50000 | O=C1NCCCOc2ccccc2-c2cc(c(F)cc2F)NS(=O)(=O)c2cc1cc(Cl)c2O [Compound 6, 16-chloro-22,24-difluoro-17-hydroxy-8-oxa-19lambda6-thia-12,20-diazatetracyclo[19.3.1.1^14,18.0^2,7]hexacosa-1(25),2,4,6,14,16,18(26),21,23-nonaene-13,19,19-trione] |  |
|  |  |  | < 2000 | O=C1OCCOc2ccccc2-c2cc(c(F)cc2F)NS(=O)(=O)c2cc1cc(Cl)c2O [Compound 7, 15-chloro-21,23-difluoro-16-hydroxy-8,11-dioxa-18lambda6-thia-19-azatetracyclo[18.3.1.1^13,170^2,7]pentacosa-1(24),2,4,6,13,15,17(25),20,22-nonaene-12,18,18-trione] |  |
| 1 to 10 | 20 to 100 | 300 to 1000 | 10000 to 50000 | O=C1NCCCc2ccccc2-c2cc(c(F)cc2F)NS(=O)(=O)c2cc1cc(Cl)c2O [Compound 8, 15-chloro-21,23-difluoro-16-hydroxy-18lambda6-thia-11,19-diazatetracyclo[18.3.1.1^13,17.0^2,7]pentacosa-1(24),2,4,6,13,15,17(25),20,22-nonaene-12,18,18-trione] |  |
| ≥ 1000 | ≥ 10000 | ≥ 50000 | ≥ 50000 | CN1c2cc(c(F)cc2F)-c2ccccc2OCCNC(=O)c2cc(Cl)c(O)c(c2)S1(=O)=O [Compound 9, 15-chloro-21,23-difluoro-16-hydroxy-19-methyl-8-oxa-18lambda6-thia-11,19-diazatetracyclo[18.3.1.1^13,17.0^2,7]pentacosa-1(24),2,4,6,13,15,17(25),20,22-nonaene-12,18,18-trione] |  |
| < 1 | < 20 | 300 to 1000 |  | O=C1OCCCOc2ccccc2-c2cc(c(F)cc2F)NS(=O)(=O)c2cc1cc(Cl)c2O [Compound 20, 16-chloro-22,24-difluoro-17-hydroxy-8,12-dioxa-19lambda6-thia-20-azatetracyclo[19.3.1.1^14,18.0^2,7]hexacosa-1(25),2,4,6,14,16,18(26),21,23-nonaene-13,19,19-trione] |  |
